From ChEMBL document CHEMBL4680137, “Synthesis and biological evaluation of some novel 1,2,3-triazole hybrids of myrrhanone B isolated from Commiphora mukul gum resin: Identification of potent antiproliferative leads active against prostate cancer cells (PC-3)” (Eur J Med Chem, 2020)
Active and inactive are the calls of the source. The calls are words filed in the database; no cut-off is given here.

Key:
[1] = test system: PC-3; assay: Induction of apoptosis in human PC-3 cells assessed as late apoptotic cells at 7.5 uM after 24 hrs by Annexin VFITC/PI staining based flow cytometric analysis (reference value: 0.2%); type: functional
[2] = test system: PC-3; assay: Induction of ROS generation in human PC-3 cells at 10 uM incubated for 6 hrs by DSCFDA staining based spectroflurometric method; type: functional, cell-based
[3] = test system: PC-3; assay: Induction of cell cycle arrest in human PC-3 cells assessed as accumulation at G0/G1 phase at 5 uM after 48 hrs by propidium iodide staining based flow cytometric analysis (reference value: 67.6%); type: functional
[4] = test system: PC-3; assay: Induction of cell cycle arrest in human PC-3 cells assessed as accumulation at G2/M phase at 5 uM after 48 hrs by propidium iodide staining based flow cytometric analysis (reference value: 20.7%); type: functional
[5] = test system: PC-3; assay: Induction of apoptosis in human PC-3 cells assessed as early apoptotic cells at 2.5 uM after 24 hrs by Annexin VFITC/PI staining based flow cytometric analysis (reference value: 0.1%); type: functional
[6] = Inhibition of LPS-induced TNF-alpha expression in human U-937 cells preincubated for 1 hr followed by LPS addition and measured after 24 hrs by ELISA; type: functional, cell-based
[7] = test system: PC-3; assay: Induction of apoptosis in human PC-3 cells assessed as condensed chromatin at 5 to 10 uM after 48 hrs by Hoechst 33258 staining fluorescence microscopic analysis; type: functional, cell-based; conditions: dose 5-10 µM
[8] = test system: PC-3; assay: Induction of apoptosis in human PC-3 cells assessed as viable cells at 7.5 uM after 24 hrs by Annexin VFITC/PI staining based flow cytometric analysis (reference value: 95.8%); type: functional; conditions: read-out: Activity
[9] = test system: L132; assay: Cytotoxicity against human L132 cells assessed as reduction in cell viability after 48 hrs by MTT assay; type: cell-based; conditions: L132, 48 h
[10] = test system: PC-3; assay: Induction of apoptosis in human PC-3 cells assessed as late apoptotic cells at 2.5 uM after 24 hrs by Annexin VFITC/PI staining based flow cytometric analysis (reference value: 0.2%); type: functional
[11] = test system: PC-3; assay: Induction of cell cycle arrest in human PC-3 cells assessed as accumulation at Sub-G1 phase at 10 uM after 48 hrs by propidium iodide staining based flow cytometric analysis (reference value: 3.58%); type: functional
[12] = test system: PC-3; assay: Induction of apoptosis in human PC-3 cells assessed as late apoptotic cells at 5 uM after 24 hrs by Annexin VFITC/PI staining based flow cytometric analysis (reference value: 0.2%); type: functional
[13] = test system: PC-3; assay: Induction of apoptosis in human PC-3 cells assessed as condensed chromatin at 5 to 10 uM after 48 hrs by acridine orange and ethidium bromide staining fluorescence microscopic analysis; type: functional, cell-based; conditions: dose 5-10 µM
[14] = test system: PC-3; assay: Induction of cell cycle arrest in human PC-3 cells assessed as accumulation at S phase at 10 uM after 48 hrs by propidium iodide staining based flow cytometric analysis (reference value: 7.69%); type: functional
[15] = test system: PC-3; assay: Induction of cell cycle arrest in human PC-3 cells assessed as accumulation at G0/G1 phase at 10 uM after 48 hrs by propidium iodide staining based flow cytometric analysis (reference value: 67.6%); type: functional
[16] = test system: PC-3; assay: Induction of cell cycle arrest in human PC-3 cells assessed as accumulation at S phase at 5 uM after 48 hrs by propidium iodide staining based flow cytometric analysis (reference value: 7.69%); type: functional
[17] = test system: PC-3; assay: Induction of apoptosis in human PC-3 cells assessed as necrotic cells at 2.5 uM after 24 hrs by Annexin VFITC/PI staining based flow cytometric analysis (reference value: 4%); type: functional
[18] = test system: PC-3; assay: Induction of mitochondrial membrane potential loss in human PC-3 cells at 10 uM after 24 hrs by JC-1 dye based flow cytometric analysis relative to control; type: functional
[19] = test system: PC-3; assay: Induction of apoptosis in human PC-3 cells assessed as destructive fragmentation of nuclei at 5 to 10 uM after 48 hrs by acridine orange and ethidium bromide staining fluorescence microscopic analysis; type: functional, cell-based; conditions: dose 5-10 µM
[20] = test system: PC-3; assay: Induction of apoptosis in human PC-3 cells after 24 hrs by Annexin VFITC/PI staining based flow cytometric analysis; type: functional, cell-based
[21] = test system: PC-3; assay: Induction of apoptosis in human PC-3 cells assessed as horse shoe shaped nuclei at 5 to 10 uM after 48 hrs by Hoechst 33258 staining fluorescence microscopic analysis; type: functional, cell-based; conditions: dose 5-10 µM
[22] = test system: PC-3; assay: Induction of cell cycle arrest in human PC-3 cells assessed as accumulation at Sub-G1 phase at 5 uM after 48 hrs by propidium iodide staining based flow cytometric analysis (reference value: 3.58%); type: functional
[23] = test system: PC-3; assay: Induction of apoptosis in human PC-3 cells assessed as necrotic cells at 5 uM after 24 hrs by Annexin VFITC/PI staining based flow cytometric analysis (reference value: 4%); type: functional
[24] = test system: PC-3; assay: Induction of apoptosis in human PC-3 cells assessed as early apoptotic cells at 5 uM after 24 hrs by Annexin VFITC/PI staining based flow cytometric analysis (reference value: 0.1%); type: functional
[25] = test system: PC-3; assay: Induction of apoptosis in human PC-3 cells assessed as viable cells at 5 uM after 24 hrs by Annexin VFITC/PI staining based flow cytometric analysis (reference value: 95.8%); type: functional; conditions: read-out: Activity
[26] = test system: PC-3; assay: Induction of cell cycle arrest in human PC-3 cells assessed as accumulation at G2/M phase at 10 uM after 48 hrs by propidium iodide staining based flow cytometric analysis (reference value: 20.7%); type: functional
[27] = test system: PC-3; assay: Induction of apoptosis in human PC-3 cells assessed as viable cells at 2.5 uM after 24 hrs by Annexin VFITC/PI staining based flow cytometric analysis (reference value: 95.8%); type: functional; conditions: read-out: Activity
[28] = test system: SiHa; assay: Antiproliferative activity against human SiHa cells assessed as reduction in cell viability after 48 hrs by MTT assay; type: functional, cell-based
[29] = test system: PC-3; assay: Induction of apoptosis in human PC-3 cells assessed as necrotic cells at 7.5 uM after 24 hrs by Annexin VFITC/PI staining based flow cytometric analysis (reference value: 4%); type: functional
[30] = test system: MDA-MB-231; assay: Antiproliferative activity against human MDA-MB-231 cells assessed as reduction in cell viability after 48 hrs by MTT assay; type: functional, cell-based; conditions: MDA-MB-231, 48 h
[31] = test system: A549; assay: Antiproliferative activity against human A549 cells assessed as reduction in cell viability after 48 hrs by MTT assay; type: functional, cell-based; conditions: A549, 48 h
[32] = test system: PC-3; assay: Induction of apoptosis in human PC-3 cells assessed as fragmented nuclei at 5 to 10 uM after 48 hrs by Hoechst 33258 staining fluorescence microscopic analysis; type: functional, cell-based; conditions: dose 5-10 µM
[33] = test system: HT-29; assay: Antiproliferative activity against human HT-29 cells assessed as reduction in cell viability after 48 hrs by MTT assay; type: functional, cell-based; conditions: HT-29, 48 h
[34] = test system: PC-3; assay: Induction of apoptosis in human PC-3 cells assessed as early apoptotic cells at 7.5 uM after 24 hrs by Annexin VFITC/PI staining based flow cytometric analysis (reference value: 0.1%); type: functional
[35] = test system: PC-3; assay: Antiproliferative activity against human PC3 cells assessed as reduction in cell viability after 48 hrs by MTT assay; type: functional, cell-based; conditions: PC-3, 48 h
[36] = test system: DU-145; assay: Antiproliferative activity against human DU-145 cells assessed as reduction in cell viability after 48 hrs by MTT assay; type: functional, cell-based; conditions: DU-145, 48 h
[37] = test system: U-87 MG; assay: Antiproliferative activity against human U87 cells assessed as reduction in cell viability after 48 hrs by MTT assay; type: functional, cell-based, U-87MG ATCC
[38] = Inhibition of LPS-induced IL-1beta expression in human U-937 cells preincubated for 1 hr followed by LPS addition and measured after 24 hrs by ELISA; type: functional, cell-based
[39] = Inhibition of Saccharomyces cerevisiae alpha-glucosidase using p-nitophenyl alpha […]D-glucoside incubated for 45 mins
[40] = test system: Saccharomyces cerevisiae; assay: Potency index, ratio of acarbose IC50 to test compound IC50 for inhibition of Saccharomyces cerevisiae alpha-glucosidase
[41] = test system: Saccharomyces cerevisiae; assay: Potency index, ratio of Myrrhanone-B IC50 to test compound IC50 for inhibition of Saccharomyces cerevisiae alpha-glucosidase

C/C(=C\CC/C(C)=C/CC[C@@H]1[C@@]2(C)CCC(=O)C(C)(C)[C@H]2CC[C@@]1(C)O)CC/C=C(\C)C(=O)OCc1cn(C[C@@H]2O[C@H](n3ccc(=O)[nH]c3=O)C[C@H]2O)nn1
Activity [1]: 12.8%
Activity [2]: Active
Activity [3]: 68.7%
Activity [4]: 16.6%
Activity [5]: 64.6%
IC50 [6]: 8.88 µM
Activity [7]: Active
viability at 7.5 µM [8]: 27.9%
IC50 [9]: 148 µM
Activity [10]: 8.6%
Activity [11]: 40.8%
Activity [12]: 12.5%
Activity [13]: Active
Activity [14]: 6.76%
Activity [15]: 41%
Activity [16]: 8.38%
Activity [17]: 0.9%
Activity [18]: 38%
Activity [19]: Active
Activity [20]: Dose-dependent effect
Activity [21]: Active
Activity [22]: 5.96%
Activity [23]: 1%
Activity [24]: 59.4%
viability at 5 µM [25]: 27.1%
Activity [26]: 11.1%
viability at 2.5 µM [27]: 26.9%
IC50 [28]: 29.3 µM
Activity [29]: 1%
IC50 [30]: 26.3 µM
IC50 [31]: 28.1 µM
Activity [32]: Active
IC50 [33]: 34.1 µM
Activity [34]: 58.3%
IC50 [35]: 10.8 µM
IC50 [36]: 33.1 µM
IC50 [37]: 75.8 µM
IC50 [38]: 9.25 µM

C#CCOC(=O)/C(C)=C/CC/C(C)=C/CC/C(C)=C/CC[C@@H]1[C@@]2(C)CCC(=O)C(C)(C)[C@H]2CC[C@@]1(C)O
IC50 [30]: 114 µM
IC50 [31]: 45.1 µM
IC50 [33]: 27.4 µM
IC50 [35]: 18.9 µM
IC50 [36]: 46.1 µM
IC50 [37]: > 150 µM

COc1cccc2c1C(=O)c1c(O)c3c(c(O)c1C2=O)C[C@@](O)(C(=O)CO)C[C@@H]3O[C@H]1C[C@H](N)[C@H](O)[C@H](C)O1 [DOXORUBICIN]
IC50 [9]: 0.01 µM
IC50 [28]: 0.311 µM
IC50 [30]: 0.034 µM
IC50 [31]: 2.58 µM
IC50 [33]: 0.082 µM
IC50 [35]: 5.05 µM
IC50 [36]: 3.11 µM
IC50 [37]: 5.94 µM

C/C(=C\CC/C(C)=C/CC[C@@H]1[C@@]2(C)CCC(=O)C(C)(C)[C@H]2CC[C@@]1(C)O)CC/C=C(\C)C(=O)O
IC50 [6]: 15.6 µM
IC50 [9]: > 150 µM
IC50 [39]: 167 µM
IC50 [28]: 96.7 µM
IC50 [30]: 90.5 µM
IC50 [31]: > 150 µM
IC50 [33]: 56.6 µM
IC50 [35]: 40.7 µM
IC50 [36]: > 150 µM

C/C(=C\CC/C(C)=C/CC[C@@H]1[C@@]2(C)CCC(=O)C(C)(C)[C@H]2CC[C@@]1(C)O)CC/C=C(\C)C(=O)OCc1cn([C@@H]2C[C@@H](n3cc(C)c(=O)[nH]c3=O)O[C@H]2CO)nn1
IC50 [6]: 8.34 µM
IC50 [9]: 115 µM
IC50 [28]: 41.7 µM
IC50 [30]: 38 µM
IC50 [31]: 35 µM
IC50 [33]: 55.6 µM
IC50 [35]: 18.9 µM
IC50 [36]: 13.8 µM
IC50 [37]: > 150 µM
IC50 [38]: 9.12 µM

C/C(=C\CC/C(C)=C/CC[C@@H]1[C@@]2(C)CCC(=O)C(C)(C)[C@H]2CC[C@@]1(C)O)CC/C=C(\C)C(=O)OCc1cn(-c2ccc([N+](=O)[O-])cc2)nn1
IC50 [9]: > 150 µM
Ratio IC50 [40]: 767
IC50 [31]: > 150 µM
Ratio IC50 [41]: 60.2
IC50 [36]: > 150 µM

C/C(=C\CC/C(C)=C/CC[C@@H]1[C@@]2(C)CCC(=O)C(C)(C)[C@H]2CC[C@@]1(C)O)CC/C=C(\C)C(=O)OCc1cn(-c2cccc(O)c2)nn1
Activity [1]: 12.1%
Activity [2]: Active
Activity [3]: 66.5%
Activity [4]: 22.7%
Activity [5]: 62.9%
Activity [7]: Active
viability at 7.5 µM [8]: 31.7%
IC50 [9]: 146 µM
IC50 [39]: 14.2 µM
Activity [10]: 8.7%
Activity [11]: 2.16%
Activity [12]: 10.9%
Activity [13]: Active
Activity [14]: 7.54%
Activity [15]: 66.5%
Activity [16]: 8.26%
Activity [17]: 0.8%
Activity [18]: 22%
Activity [19]: Active
Activity [20]: Dose-dependent effect
Activity [21]: Active
Activity [22]: 2.09%
Activity [23]: 1%
Activity [24]: 58.8%
viability at 5 µM [25]: 29.3%
Activity [26]: 23.4%
viability at 2.5 µM [27]: 27.7%
IC50 [28]: 48 µM
Activity [29]: 1.4%
IC50 [30]: 139 µM
IC50 [31]: 42.8 µM
Activity [32]: Active
IC50 [33]: 38.6 µM
Activity [34]: 54.8%
IC50 [35]: 6.57 µM
IC50 [36]: 28.4 µM
IC50 [37]: > 150 µM

C/C(=C\CC/C(C)=C/CC[C@@H]1[C@@]2(C)CCC(=O)C(C)(C)[C@H]2CC[C@@]1(C)O)CC/C=C(\C)C(=O)OCc1cn(-c2ccccc2[N+](=O)[O-])nn1
IC50 [6]: 9.05 µM
IC50 [9]: > 150 µM
Ratio IC50 [40]: 767
IC50 [31]: > 150 µM
Ratio IC50 [41]: 60.2
IC50 [36]: > 150 µM
IC50 [38]: 8.97 µM
